Measurements: ChEMBL document CHEMBL6096669, “Design and synthesis of novel derivatives of bisepoxylignans as potent anti-inflammatory agents involves the modulation of the M1/M2 microglia phenotype via TLR4/NF-κB signaling pathway” (Eur J Med Chem, 2025)
Activity calls are given as the source filed them. No cut-off for these calls is given here.

Assays:
Mus musculus [1] = assay: (§1) Anti-neuroinflammatory activity against LPS-induced male C57BL/6 mouse assessed as suppression of LPS-induced pathological changes in spleen at 20 mg/kg, po administered for 3 days followed by induced with LPS by tail vein injection by hematoxylin-eosin staining based assay; type: functional, organism-based; conditions: time 3.0 day
Mus musculus [2] = assay: Anti-neuroinflammatory activity against LPS-induced male C57BL/6 mouse assessed as suppression of LPS-induced neuronal damage by measuring increase in Nissl bodies at 20 mg/kg, po administered for 3 days followed by induced with LPS by tail vein injection; type: functional, organism-based; conditions: time 3.0 day
[3] = MRT in rat at 20 mg/kg, po single dose; type: ADME, organism-based; conditions: in vivo
BV-2 [4] = assay: Anti-inflammatory activity against LPS-induced mouse BV-2 cells assessed as decrease in LPS-induced TLR4 production incubated for 4 hrs followed by LPS induced for 24 hrs by […]; type: functional, cell-based; conditions: dose 5-20 µM, time 28.0 hrs
[5] = Biodistribution in C57BL/6 mouse liver at 20 mg/kg, IG measured after 15 mins; type: ADME, organism-based; conditions: in vivo, po, 0.25 h
Mus musculus [6] = assay: as §1, with “microglial activation by measuring decrease” for “pathological changes”, “[…] fluorescence intensity” for “spleen”, “immunofluorescence” for “hematoxylin-eosin”; type: functional, organism-based; conditions: time 3.0 day
[7] = Acute toxicity in C57BL/6 mouse assessed as change in BUN level at 500 mg/kg, po single dose measured on day 8; type: organism-based; conditions: in vivo
Mus musculus [8] = assay: Anti-neuroinflammatory activity against LPS-induced male C57BL/6 mouse assessed as suppression of LPS-induced p-NF-kappaB protein level at 20 mg/kg, po administered for 3 days followed by induced with LPS by tail vein injection by Western blot analysis; type: functional, organism-based; conditions: time 3.0 day
Mus musculus [9] = assay: Anti-neuroinflammatory activity against LPS-induced male C57BL/6 mouse assessed as suppression of LPS-induced TNF-alphamRNA level at 20 mg/kg, po administered for 3 days followed by induced with LPS by tail vein injection by RT-PCR analysis; type: functional, organism-based; conditions: time 3.0 day
BV-2 [10] = assay: Anti-inflammatory activity against LPS-induced mouse BV-2 cells assessed as decrease in LPS-induced iNOS production incubated for 4 hrs followed by LPS induced for 24 hrs by Western blotting analysis; type: functional, cell-based; conditions: dose 5-20 µM, time 28.0 hrs
BV-2 [11] = assay: Anti-inflammatory activity against LPS-induced mouse BV-2 cells assessed as decrease in LPS-induced iNOS mRNA expression at 10 to 20 uM incubated for 4 hrs followed by LPS induced for 12 hrs by RT-PCR analysis relative to control; type: functional, cell-based; conditions: dose 10-20 µM, time 16.0 hrs
Mus musculus [12] = assay: Anti-neuroinflammatory activity against LPS-induced male C57BL/6 mouse assessed as suppression of LPS-induced IL-6 mRNA level at 20 mg/kg, po administered for 3 days followed by induced with LPS by tail vein injection by RT-PCR analysis; type: functional, organism-based; conditions: time 3.0 day
BV-2 [13] = assay: Inhibition of LPS-induced NO production in mouse BV-2 cells measured after 24 hrs followed by induced with LPS for another 24 hrs by ELISA relative to control; type: functional, cell-based
[14] = Acute toxicity in C57BL/6 mouse assessed as morphological changes in kidney by measuring signs of inflammation at 500 mg/kg, po single dose measured on day 8 by H and E staining based assay; type: organism-based; conditions: in vivo, 192 h, time 8 day
BV-2 [15] = assay: Anti-inflammatory activity against LPS-induced mouse BV-2 cells assessed as decrease in LPS-induced TNFalpha production incubated for 4 hrs followed by LPS induced for 24 hrs by Western blotting analysis; type: functional, cell-based; conditions: dose 5-20 µM, time 28.0 hrs
[16] = Ratio of AUC in brain to serum in rat at 20 mg/kg, po single dose; type: ADME, organism-based
[17] = AUCall in rat at 20 mg/kg, po single dose; type: ADME, organism-based; conditions: in vivo
[18] = Acute toxicity in C57BL/6 mouse assessed as morphological changes in liver by measuring signs of inflammation at 500 mg/kg, po single dose measured on day 8 by H and E staining based assay; type: organism-based; conditions: in vivo, 192 h, time 8 day
BV-2 [19] = assay: Anti-inflammatory activity against LPS-induced mouse BV-2 cells assessed as decrease in LPS-induced Cyclooxygenase-2 production at 5 uM incubated for 4 hrs followed by LPS induced for 24 hrs by Western blotting analysis; type: functional, cell-based
[20] = Cytotoxicity against mouse BV-2 cells assessed as cell viability at 10 uM measured after 24 hrs by MTT assay relative to control; type: toxicity, cell-based; conditions: read-out: Activity
[21] = Tmax in rat at 20 mg/kg, po single dose; type: ADME, organism-based; conditions: in vivo
Mus musculus [22] = assay: Anti-neuroinflammatory activity against LPS-induced male C57BL/6 mouse assessed as suppression of LPS-induced p-NF-kappaB protein level at 10 mg/kg, po administered for 3 days followed by induced with LPS by tail vein injection by Western blot analysis; type: functional, organism-based; conditions: time 3.0 day
[23] = Half life in rat at 20 mg/kg, po single dose; type: ADME, organism-based; conditions: in vivo
Mus musculus [24] = assay: Anti-neuroinflammatory activity against LPS-induced male C57BL/6 mouse assessed as suppression of LPS-induced p-I-kappaB-alpha protein level at 10 mg/kg, po administered for 3 days followed by induced with LPS by tail vein injection by Western blot analysis; type: functional, organism-based; conditions: time 3.0 day
BV-2 [25] = assay: Anti-inflammatory activity against LPS-induced mouse BV-2 cells assessed as decrease in LPS-induced Cyclooxygenase-2 mRNA expression at 5 to 20 uM incubated for 4 hrs followed by LPS induced for 12 hrs by RT-PCR analysis relative to control; type: functional, cell-based; conditions: dose 5-20 µM, time 16.0 hrs
[26] = AUMClast in rat at 20 mg/kg, po single dose; type: ADME, organism-based; conditions: in vivo
[27] = Biodistribution in C57BL/6 mouse spleen at 20 mg/kg, IG measured after 15 mins; type: ADME, organism-based; conditions: in vivo, po, 0.25 h
BV-2 [28] = assay: Anti-inflammatory activity against LPS-induced mouse BV-2 cells assessed as decrease in LPS-induced Cyclooxygenase-2 mRNA expression at 20 uM incubated for 4 hrs followed by LPS induced for 12 hrs by RT-PCR analysis relative to control; type: functional, cell-based; conditions: time 16.0 hrs
[29] = Acute toxicity in C57BL/6 mouse assessed as change in ALT level at 500 mg/kg, po single dose measured on day 8 by ALT/GPT test kit; type: organism-based; conditions: in vivo
[30] = Cmax in rat at 20 mg/kg, po single dose; type: ADME, organism-based; conditions: in vivo
BV-2 [31] = assay: Anti-inflammatory activity against LPS-induced mouse BV-2 cells assessed as decrease in LPS-induced IL-6 mRNA expression at 10 to 20 uM incubated for 4 hrs followed by LPS induced for 12 hrs by RT-PCR analysis relative to control; type: functional, cell-based; conditions: dose 10-20 µM, time 16.0 hrs
Mus musculus [32] = assay: Anti-neuroinflammatory activity against LPS-induced male C57BL/6 mouse assessed as suppression of LPS-induced pathological changes in heart at 20 mg/kg, po administered for 3 days followed by induced with LPS by tail vein injection by hematoxylin-eosin staining based assay; type: functional, organism-based; conditions: time 3.0 day
BV-2 [33] = assay: Anti-inflammatory activity against LPS-induced mouse BV-2 cells assessed as decrease in LPS-induced TNF-alpha mRNA expression at 5 uM incubated for 4 hrs followed by LPS induced for 12 hrs by RT-PCR analysis relative to control; type: functional, cell-based; conditions: time 16.0 hrs
BV-2 [34] = assay: Anti-inflammatory activity against LPS-induced mouse BV-2 cells assessed as decrease in LPS-induced IL-6 mRNA expression at 5 uM incubated for 4 hrs followed by LPS induced for 12 hrs by RT-PCR analysis relative to control; type: functional, cell-based; conditions: time 16.0 hrs

SMILES: O=c1[nH]c2ccc(Nc3ncnc4c3ccn4Cc3ccc(F)cc3)cc2[nH]1
- Activity (Mus musculus [1]): Active; Decreased Lps-Induced Visceral Injury (Cell Morphology, Hemorrhage, And Neutrophil Infiltration) And Maintaining Normal Cell Shape And Arrangement And Enhancing Infiltration Of Inflammatory Cells
- Activity (Mus musculus [2]): Active
- MRT [3]: 6.2 h
- Activity (BV-2 [4]): Dose-dependent-effect
- Drug uptake [5]: Active
- Activity (Mus musculus [6]): Active
- Activity [7]: Non-toxic
- Activity (Mus musculus [8]): Active
- Activity (Mus musculus [9]): Active
- Activity (BV-2 [10]): Dose-dependent-effect
- Activity (BV-2 [11]): Active
- Activity (Mus musculus [12]): Active
- inhibition (BV-2 [13]): Active
- Activity [14]: Non-toxic
- Activity (BV-2 [15]): Dose-dependent-effect
- Ratio [16]: 1.9%
- AUC [17]: 43600 ng·h/mL
- Activity [18]: Non-toxic
- Activity (BV-2 [19]): Not active; No Significant Effect Observed Vs Lps
- viability at 24 h, 10 µM [20]: 95.3%
- Tmax [21]: 1 h
- Activity (Mus musculus [22]): Not active; No Significant Effect Observed Vs Lps
- half-life [23]: 5.91 h
- Activity (Mus musculus [24]): Not active; No Significant Effect Observed Vs Lps
- Activity (BV-2 [25]): Active
- AUMClast [26]: 269972.2 hr.hr.ng/ml
- Drug uptake [27]: Active
- Activity (BV-2 [28]): Active
- Activity [29]: Non-toxic
- Cmax [30]: 7490 ng/mL
- Activity (BV-2 [31]): Active
- Activity (Mus musculus [32]): Active; Decreased Lps-Induced Visceral Injury (Cell Morphology, Hemorrhage, And Neutrophil Infiltration) And Maintaining Normal Cell Shape And Arrangement And Enhancing Infiltration Of Inflammatory Cells
- Activity (BV-2 [33]): Not active; No Significant Effect Observed Vs Lps
- Activity (BV-2 [34]): Not active; No Significant Effect Observed Vs Lps
